Reference: patent US11104680B2, “1,5-dihydro-4H-pyrazolo[3,4-d]pyrimidin-4-ones and 1,5-dihydro-4H-pyrazolo[4,3-c]pyridin-4-ones as PDE1 inhibitors” (H. Lundbeck A/S, priority 2016, dated 2021)

Assays:
Type in all cases: biochemical
PDE9 = PDE9 (Homo sapiens (Human), UniProt O76083); experiment: PDE9 inhibition assay, SPA; conditions: 10 microM compound; 10 nM 3H-cAMP;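 further: enzyme reaction incubated for 1 h, then stopped by adding yttrium silicate scintillation proximity beads for the read-out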
Chain of PDE9 (O76083 whole entry): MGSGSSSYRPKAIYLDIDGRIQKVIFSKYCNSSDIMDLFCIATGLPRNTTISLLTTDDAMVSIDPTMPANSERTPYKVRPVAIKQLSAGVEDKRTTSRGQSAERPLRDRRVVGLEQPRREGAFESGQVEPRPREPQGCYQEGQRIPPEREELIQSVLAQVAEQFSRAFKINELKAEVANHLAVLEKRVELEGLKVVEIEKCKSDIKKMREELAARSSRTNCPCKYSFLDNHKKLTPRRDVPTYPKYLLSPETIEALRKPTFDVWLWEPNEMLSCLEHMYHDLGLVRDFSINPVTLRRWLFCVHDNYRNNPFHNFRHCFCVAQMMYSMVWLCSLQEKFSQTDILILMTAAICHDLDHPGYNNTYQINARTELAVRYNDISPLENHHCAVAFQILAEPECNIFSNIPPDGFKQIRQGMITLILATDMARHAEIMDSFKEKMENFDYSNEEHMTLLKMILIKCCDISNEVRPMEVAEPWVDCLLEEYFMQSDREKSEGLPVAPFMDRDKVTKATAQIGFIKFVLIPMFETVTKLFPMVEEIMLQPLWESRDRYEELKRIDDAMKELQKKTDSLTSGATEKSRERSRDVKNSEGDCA
Description: Reactions are initiated by addition of the cyclic nucleotide substrate, and reactions are allowed to proceed for one hr at room temperature before being terminated through mixing with 15 μL 8 mg/mL yttrium silicate SPA beads (Amersham).
Following 1 hr incubation the reactions were terminated by addition of 15 uL 8 mg/mL yttrium silicate SPA beads (Amersham).

PDE1C = PDE1C (Homo sapiens (Human), UniProt Q14123); experiment: PDE1 inhibition assay (PDE1C), SPA; conditions: 15 nM tritium labelled cAMP
Chain of PDE1C (Q14123 whole entry): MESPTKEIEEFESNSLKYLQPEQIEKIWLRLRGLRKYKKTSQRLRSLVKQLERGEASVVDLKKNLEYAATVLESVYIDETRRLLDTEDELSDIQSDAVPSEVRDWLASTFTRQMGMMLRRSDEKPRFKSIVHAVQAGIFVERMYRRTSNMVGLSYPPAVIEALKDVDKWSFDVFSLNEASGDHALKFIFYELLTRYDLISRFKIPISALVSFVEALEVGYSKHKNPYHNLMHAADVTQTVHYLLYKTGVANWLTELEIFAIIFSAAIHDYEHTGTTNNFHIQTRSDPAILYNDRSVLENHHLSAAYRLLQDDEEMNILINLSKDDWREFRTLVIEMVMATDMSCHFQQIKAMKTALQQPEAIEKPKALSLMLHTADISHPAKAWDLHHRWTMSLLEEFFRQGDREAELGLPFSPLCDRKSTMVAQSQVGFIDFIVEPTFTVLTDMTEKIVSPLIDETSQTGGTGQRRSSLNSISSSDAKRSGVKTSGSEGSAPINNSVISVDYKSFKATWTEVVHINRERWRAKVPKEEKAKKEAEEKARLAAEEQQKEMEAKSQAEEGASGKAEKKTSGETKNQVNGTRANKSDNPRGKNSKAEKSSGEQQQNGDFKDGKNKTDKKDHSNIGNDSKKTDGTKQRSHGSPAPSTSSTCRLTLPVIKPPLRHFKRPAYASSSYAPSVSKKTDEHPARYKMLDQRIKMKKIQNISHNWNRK
Description: (§1) Reactions were initiated by addition of the cyclic nucleotide substrate, and reactions were allowed to proceed for 1 hr at room temperature before being terminated through mixing with 20 μL (0.2 mg) yttrium silicate SPA beads (PerkinElmer). The beads were allowed to settle for 1 hr in the dark before the plates were counted in a Wallac 1450 Microbeta counter.

PDE1B = PDE1B (Homo sapiens (Human), UniProt Q01064); experiment: PDE1 inhibition assay (PDE1B), SPA; conditions: 15 nM tritium labelled cAMP
Chain of PDE1B (Q01064 whole entry): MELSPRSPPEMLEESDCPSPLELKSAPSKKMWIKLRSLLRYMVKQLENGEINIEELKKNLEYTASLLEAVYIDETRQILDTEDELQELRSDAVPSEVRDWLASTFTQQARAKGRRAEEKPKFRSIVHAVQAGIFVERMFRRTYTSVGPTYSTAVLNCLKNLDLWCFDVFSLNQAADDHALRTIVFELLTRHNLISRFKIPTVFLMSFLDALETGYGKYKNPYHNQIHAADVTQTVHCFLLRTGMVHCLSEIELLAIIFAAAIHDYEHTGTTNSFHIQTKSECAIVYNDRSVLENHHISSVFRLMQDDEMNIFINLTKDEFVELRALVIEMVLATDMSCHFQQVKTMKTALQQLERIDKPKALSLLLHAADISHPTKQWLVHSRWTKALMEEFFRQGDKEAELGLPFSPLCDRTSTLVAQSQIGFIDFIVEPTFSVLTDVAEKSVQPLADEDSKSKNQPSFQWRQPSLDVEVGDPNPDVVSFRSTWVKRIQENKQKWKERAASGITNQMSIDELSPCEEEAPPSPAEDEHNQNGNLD
Description: Reactions were initiated by addition of the cyclic nucleotide substrate, and reactions were allowed to proceed for 1 hr at room temperature before being terminated through mixing with 20 μL (0.2 mg) yttrium silicate SPA beads (PerkinElmer).

PDE1A = PDE1A (Homo sapiens (Human), UniProt P54750); experiment: PDE1 inhibition assay (PDE1A), SPA; conditions: 15 nM tritium labelled cAMP
Chain of PDE1A (P54750 whole entry): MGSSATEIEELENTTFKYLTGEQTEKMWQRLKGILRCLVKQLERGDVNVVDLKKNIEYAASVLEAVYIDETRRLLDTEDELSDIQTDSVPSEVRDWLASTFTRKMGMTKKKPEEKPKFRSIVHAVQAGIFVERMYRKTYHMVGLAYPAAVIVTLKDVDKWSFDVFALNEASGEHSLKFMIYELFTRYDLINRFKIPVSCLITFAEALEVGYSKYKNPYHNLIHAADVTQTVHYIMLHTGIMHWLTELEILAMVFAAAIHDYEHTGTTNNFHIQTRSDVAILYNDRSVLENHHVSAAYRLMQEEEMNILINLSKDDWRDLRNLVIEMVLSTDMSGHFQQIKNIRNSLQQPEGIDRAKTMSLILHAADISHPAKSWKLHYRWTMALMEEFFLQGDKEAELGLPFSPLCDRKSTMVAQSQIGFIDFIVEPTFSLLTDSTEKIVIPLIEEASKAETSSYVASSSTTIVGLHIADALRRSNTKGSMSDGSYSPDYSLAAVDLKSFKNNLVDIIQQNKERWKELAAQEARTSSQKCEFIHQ
Description: as §1

SMILES	inhibition at 10 µM (PDE9)	IC50 (PDE1C)	IC50 (PDE1B)	IC50 (PDE1A)	inhibition at 10 µM (PDE1A; read-out: PDE1A, % inhibition @10 μM, 10 μM compound)
COc1ccc(Cn2c(C)cc3c(cnn3[C@@H]3CCO[C@H]3C)c2=O)cc1 (relative stereo) [Example 26, 5-[(4-methoxyphenyl)methyl]-6-methyl-1-[(trans)-2-methyltetrahydrofuran-3-yl]pyrazolo[4,3-c]pyridin-4-one]	8%	345 nM	83 nM	206 nM	
COc1ccc(Cn2c(C)cc3c(cnn3[C@@H]3CCO[C@@H]3C)c2=O)cc1 (relative stereo) [Example 27, 5-[(4-methoxyphenyl)methyl]-6-methyl-1-[(cis)-2-methyltetrahydrofuran-3-yl]pyrazolo[4,3-c]pyridin-4-one]	13%	686 nM	179 nM	1300 nM	
O=c1c2cnn(C3CCOCC3)c2nc(Cc2ccccc2)n1CC1CCCCC1 [Example 1, 6-benzyl-5-(cyclohexylmethyl)-1-(tetrahydro-2H-pyran-4-yl)-1,5-dihydro-4H-pyrazolo[3,4-d]pyrimidin-4-one]	51%	120 nM	320 nM	349 nM	
COc1ccc(Cn2c(C)nc3c(cnn3C3CCOCC3)c2=O)cc1 [Example 2, 5-(4-methoxybenzyl)-6-methyl-1-(tetrahydro-2H-pyran-4-yl)-1H-pyrazolo[3,4-d]pyrimidin-4(5H)-one]	10%	74 nM	62 nM	132 nM	
Cc1nc2c(cnn2C2CCOCC2)c(=O)n1CC1CCCCC1 [Example 3, 5-(cyclohexylmethyl)-6-methyl-1-tetrahydropyran-4-yl-pyrazolo[3,4-d]pyrimidin-4-one]	29%	29 nM	103 nM	172 nM	
CCCn1ncc2c(=O)n(Cc3ccc(OC)cc3)c(C)nc21 [Example 4, 5-[(4-methoxyphenyl)methyl]-6-methyl-1-propyl-pyrazolo[3,4-d]pyrimidin-4-one]	13%	72 nM	68 nM	108 nM	
CCCn1ncc2c(=O)n(CC3CCCCC3)c(C)nc21 [Example 5, 5-(cyclohexylmethyl)-6-methyl-1-propyl-pyrazolo[3,4-d]pyrimidin-4-one]	-16%	36 nM	31 nM	111 nM	
CCc1nc2c(cnn2C2CCOCC2)c(=O)n1Cc1ccc(OC)cc1 [Example 6, 6-ethyl-5-[(4-methoxyphenyl)methyl]-1-tetrahydropyran-4-yl-pyrazolo[3,4-d]pyrimidin-4-one]	2%	140 nM	80 nM	107 nM	
COCc1nc2c(cnn2C2CCOCC2)c(=O)n1Cc1ccc(OC)cc1 [Example 7, 6-(methoxymethyl)-5-[(4-methoxyphenyl)methyl]-1-tetrahydropyran-4-yl-pyrazolo[3,4-d]pyrimidin-4-one]	-12%	345 nM	181 nM	325 nM	
COc1ccc(Cn2c(C(C)C)nc3c(cnn3C3CCOCC3)c2=O)cc1 [Example 8, 6-isopropyl-5-[(4-methoxyphenyl)methyl]-1-tetrahydropyran-4-yl-pyrazolo[3,4-d]pyrimidin-4-one]	7%	1320 nM	211 nM	751 nM	
COc1ccc(Cn2c(CC3COC3)nc3c(cnn3C3CCOCC3)c2=O)cc1 [Example 9, 5-[(4-methoxyphenyl)methyl]-6-(oxetan-3-ylmethyl)-1-tetrahydropyran-4-yl-pyrazolo[3,4-d]pyrimidin-4-one]	12%	165 nM	58 nM		
Cc1cc2c(cnn2C2CCOCC2)c(=O)n1Cc1cccc(F)c1 [Example 10, 5-[(3-fluorophenyl)methyl]-6-methyl-1-tetrahydropyran-4-yl-pyrazolo[4,3-c]pyridin-4-one]	3%	149 nM		1070 nM	
Cc1cc2c(cnn2C2CCOCC2)c(=O)n1Cc1ccccc1F [Example 11, 5-[(2-fluorophenyl)methyl]-6-methyl-1-tetrahydropyran-4-yl-pyrazolo[4,3-c]pyridin-4-one]	12%	61 nM		589 nM	
Cc1cc2c(cnn2C2CCOCC2)c(=O)n1Cc1ccc(Cl)cc1 [Example 12, 5-[(4-chlorophenyl)methyl]-6-methyl-1-tetrahydropyran-4-yl-pyrazolo[4,3-c]pyridin-4-one]	16%	419 nM		127 nM	
Cc1cc2c(cnn2C2CCOCC2)c(=O)n1Cc1ccccc1 [Example 13, 5-benzyl-6-methyl-1-tetrahydropyran-4-yl-pyrazolo[4,3-c]pyridin-4-one]	-18%	135 nM		1260 nM	
Cc1cc2c(cnn2C2CCOCC2)c(=O)n1Cc1cccc(Cl)c1 [Example 14, 5-[(3-chlorophenyl)methyl]-6-methyl-1-tetrahydropyran-4-yl-pyrazolo[4,3-c]pyridin-4-one]	-15%	95 nM	413 nM	1300 nM	
Cc1cc2c(cnn2C2CCOCC2)c(=O)n1Cc1ccc(F)cc1 [Example 15, 5-[(4-fluorophenyl)methyl]-6-methyl-1-tetrahydropyran-4-yl-pyrazolo[4,3-c]pyridin-4-one]	-13%	204 nM	258 nM	1240 nM	
Cc1ccc(Cn2c(C)cc3c(cnn3C3CCOCC3)c2=O)cc1 [Example 16, 6-methyl-5-(p-tolylmethyl)-1-tetrahydropyran-4-yl-pyrazolo[4,3-c]pyridin-4-one]	-1%	496 nM	71 nM	400 nM	
Cc1cc2c(cnn2C2CCOCC2)c(=O)n1Cc1ccc2c(c1)OCO2 [Example 17, 5-(1,3-benzodioxol-5-ylmethyl)-6-methyl-1-tetrahydropyran-4-yl-pyrazolo[4,3-c]pyridin-4-one]	-2%	662 nM	154 nM	429 nM	
COc1ccc(Cn2c(C)cc3c(cnn3C3CCOCC3)c2=O)cn1 [Example 18, 5-[(6-methoxy-3-pyridyl)methyl]-6-methyl-1-tetrahydropyran-4-yl-pyrazolo[4,3-c]pyridin-4-one]	9%	1170 nM		738 nM	
COc1ccc(Cn2c(C)cc3c(cnn3C3CCOCC3)c2=O)cc1 [Example 19, 5-(4-methoxybenzyl)-6-methyl-1-(tetrahydro-2H-pyran-4-yl)-1,5-dihydro-4H-pyrazolo[4,3-c]pyridin-4-one]	19%	171 nM		184 nM	
CCCn1ncc2c(=O)n(Cc3ccc(OC)cc3)c(C)cc21 [Example 20, 5-(4-methoxybenzyl)-6-methyl-1-propyl-1,5-dihydro-4H-pyrazolo[4,3-c]pyridin-4-one]	19%	233 nM	82 nM	290 nM	
COc1ccc(Cn2c(C)cc3c(cnn3C(C)C)c2=O)cc1 [Example 21, 1-isopropyl-5-[(4-methoxyphenyl)methyl]-6-methyl-pyrazolo[4,3-c]pyridin-4-one]	-14%	134 nM	37 nM	49 nM	
COc1ccc(Cn2c(C)cc3c(cnn3C3CCOC3)c2=O)cc1 (stereo not drawn) [Example 22, 5-[(4-methoxyphenyl)methyl]-6-methyl-1-tetrahydrofuran-3-yl-pyrazolo[4,3-c]pyridin-4-one]	8%	1200 nM	569 nM	1690 nM	
COc1ccc(Cn2c(C)cc3c(cnn3C3CC3)c2=O)cc1 [Example 23, 1-cyclopropyl-5-[(4-methoxyphenyl)methyl]-6-methyl-pyrazolo[4,3-c]pyridin-4-one]	-6%	975 nM	255 nM	543 nM	
CCn1ncc2c(=O)n(Cc3ccc(OC)cc3)c(C)cc21 [Example 24, 1-ethyl-5-[(4-methoxyphenyl)methyl]-6-methyl-pyrazolo[4,3-c]pyridin-4-one]	19%	1330 nM	329 nM	1120 nM	
COc1ccc(Cn2c(C)cc3c(cnn3C3CCCOC3)c2=O)cc1 (stereo not drawn) [Example 25, 5-[(4-methoxyphenyl)methyl]-6-methyl-1-tetrahydropyran-3-yl-pyrazolo[4,3-c]pyridin-4-one]	8%	644 nM		825 nM	
COc1ccc(Cn2c(C)cc3c(cnn3C3COC3)c2=O)cc1 [Example 28, 5-(4-methoxybenzyl)-6-methyl-1-(oxetan-3-yl)-1,5-dihydro-4H-pyrazolo[4,3-c]pyridin-4-one]	14%	2180 nM	704 nM		63%
COc1ccc(Cn2c(C)cc3c(cnn3C3(C)CCOCC3)c2=O)cc1 [Example 29, 5-(4-methoxybenzyl)-6-methyl-1-(4-methyltetrahydro-2H-pyran-4-yl)-1,5-dihydro-4H-pyrazolo[4,3-c]pyridin-4-one]	26%	174 nM	87 nM	119 nM	
